According to paper PMC7504051, “Ilimaquinone Induces the Apoptotic Cell Death of Cancer Cells by Reducing Pyruvate Dehydrogenase Kinase 1 Activity” (International Journal of Molecular Sciences, 2020):

Columns and labels:
[1] = target: T1, pyruvate dehydrogenase kinase 1 (PDK1) (Homo sapiens, UniProt Q15118); assay: isothermal titration calorimetry (MicroCal AutoITC200); supported by (α-32P)ATP displacement from purified PDK1; format: binding
T1 construct: His-tagged PDK1

[2] = target: T1, pyruvate dehydrogenase kinase 1 (PDK1); assay: radiolabelled (α-32P)ATP binding to bead-bound purified PDK1, scintillation counting, unlabelled ATP as competitor

T1 sequence (Q15118 29-436): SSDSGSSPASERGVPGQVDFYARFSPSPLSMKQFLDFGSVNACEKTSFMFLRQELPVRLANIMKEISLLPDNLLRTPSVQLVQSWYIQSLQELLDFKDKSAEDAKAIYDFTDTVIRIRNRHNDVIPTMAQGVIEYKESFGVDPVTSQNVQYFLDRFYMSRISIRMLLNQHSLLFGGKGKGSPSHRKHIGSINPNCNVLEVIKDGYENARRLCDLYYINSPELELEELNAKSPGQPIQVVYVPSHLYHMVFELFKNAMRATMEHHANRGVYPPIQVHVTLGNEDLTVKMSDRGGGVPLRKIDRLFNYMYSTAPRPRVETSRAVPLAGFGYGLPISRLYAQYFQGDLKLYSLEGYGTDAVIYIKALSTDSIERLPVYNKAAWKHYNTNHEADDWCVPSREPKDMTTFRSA

Compound	Kd [1] [µM]	radiolabelled (α-32P)ATP binding to bead-bound purified PDK1, scintillation coun [2]
C=C1CCC[C@H]2[C@](C)(CC3=C(O)C(=O)C=C(OC)C3=O)[C@@H](C)CC[C@]12C [IQ, ilimaquinone]	14.6	–
Nc1ncnc2c1ncn2[C@@H]1O[C@H](COP(=O)(O)OP(=O)(O)OP(=O)(O)O)[C@@H](O)[C@H]1O [ATP]	–	The binding of ATP to PDK1 in the presence of IQ was determined using α^32-labeled ATP.
